Assay results from doi:10.1101/2024.04.22.590490v1 (biorxiv, 2024).

Columns and labels:
GSK-3β = GSK-3β (Homo sapiens, UniProt P49841); experiment: ADP-Glo luminescent kinase assay; format: biochemical
GSK-3α = GSK-3α (Homo sapiens, UniProt P49840); experiment: ADP-Glo luminescent kinase assay; format: biochemical
GSK-3α, sequence (P49840 2-483): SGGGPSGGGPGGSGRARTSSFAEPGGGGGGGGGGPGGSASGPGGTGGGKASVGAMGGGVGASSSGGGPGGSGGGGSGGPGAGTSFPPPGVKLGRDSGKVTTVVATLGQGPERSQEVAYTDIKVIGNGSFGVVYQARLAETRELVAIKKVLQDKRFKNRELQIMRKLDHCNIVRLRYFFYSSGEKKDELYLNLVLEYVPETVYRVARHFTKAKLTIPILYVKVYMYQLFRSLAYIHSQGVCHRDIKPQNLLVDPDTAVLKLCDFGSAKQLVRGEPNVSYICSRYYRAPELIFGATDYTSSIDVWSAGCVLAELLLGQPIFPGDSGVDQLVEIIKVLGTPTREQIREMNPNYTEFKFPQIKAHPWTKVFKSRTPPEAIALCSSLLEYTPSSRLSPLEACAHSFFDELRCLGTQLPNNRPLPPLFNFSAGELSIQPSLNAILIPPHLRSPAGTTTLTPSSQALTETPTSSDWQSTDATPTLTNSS

GSK-3β, sequence (P49841 whole entry): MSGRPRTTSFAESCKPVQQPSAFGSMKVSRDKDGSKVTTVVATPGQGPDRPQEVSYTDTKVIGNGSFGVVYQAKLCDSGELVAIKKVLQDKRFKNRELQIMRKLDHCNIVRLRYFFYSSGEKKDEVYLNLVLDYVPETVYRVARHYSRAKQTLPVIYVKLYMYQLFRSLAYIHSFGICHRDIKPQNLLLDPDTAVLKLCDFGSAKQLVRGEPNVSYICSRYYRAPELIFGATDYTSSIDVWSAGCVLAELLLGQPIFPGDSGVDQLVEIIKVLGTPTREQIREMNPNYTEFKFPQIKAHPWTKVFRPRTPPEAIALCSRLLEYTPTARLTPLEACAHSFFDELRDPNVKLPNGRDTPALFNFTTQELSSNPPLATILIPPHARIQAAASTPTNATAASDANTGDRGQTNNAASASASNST

IC50 (GSK-3β) [µM] | IC50 (GSK-3α) [µM] | SMILES
2.25 | 5.14 | O=C(/C=C/c1ccc(O)c(O)c1)O[C@H](Cc1ccc(O)c(O)c1)C(=O)O [Rosmarinic acid]
4.24 | 2.27 | CC(C)=CCc1cc2c(cc1O)oc(=O)c1c3ccc(O)cc3oc21 [Psoralidin]
